Source: article PMC5399052, “Integrating in vitro data and physiologically based kinetic (PBK) modelling to assess the in vivo potential developmental toxicity of a series of phenols” (Archives of Toxicology, 2016)
Where two headings read alike, the source gives them in different places. Marks after values point to notes of the source that are not given here. Blank lines part the entries; values can stand above or below the compound they belong to.

Columns and labels:
Caco-2 cells = experiment: in vitro
Procedure: (§1) Caco-2 cells (passages 37–40) were cultured in DMEM containing 25 mM HEPES (pH 7.4) supplemented with 10% (v/v) heat-inactivated FCS, 4500 mg/l glucose, 2 mM L-glutamine, 1% (v/v) minimal essential medium non-essential amino acids, 10,000 U/ml penicillin and 10 mg/ml streptomycin and maintained in polystyrene cell culture flasks (Corning, Amsterdam, the Netherlands) in a 5% CO2-humidified atmosphere at 37 °C. Cells were harvested after exposure to a trypsin–EDTA solution. Next, the cells were seeded onto Transwell® inserts (0.4 µm pored polycarbonate membrane, 12 mm diameter), at a density of 10^5 cells/cm^2. Cell culture medium (0.5 and 1.5 ml in the apical and basolateral compartment, respectively) was changed every two days.
(§2) Transport experiments were performed between day 20 and 23 post-seeding. Prior to the transport experiments, the cell culture medium was removed and cells were equilibrated in HBSS for 30–45 min in a 5% CO2-humidified atmosphere at 37 °C. In these 45 min, the integrity of the cell monolayer was examined by measuring the Trans Epithelial Electrical Resistance (TEER) of the cell layer using a Millicell ERS-2 Volt–Ohm Meter (Millipore, USA). Only cell layers with a TEER value between 500 and 1000 Ω cm^2 were used for the transport experiments. The transport buffer for the apical compartment consisted of HBSS containing 10 mM HEPES (pH 6.5) and 10 mM sodium taurocholate and the transport buffer for the basolateral compartment consisted of HBSS (pH 7.4) with 30 mg/ml bovine serum albumin. At first, 1.5 ml pre-warmed (37 °C) transport buffer was added to the basolateral compartment. Then, the transport experiments were started by adding 0.5 ml pre-warmed transport buffer containing the test compound (100 µM) to the apical compartment. After 60-min incubation in a 5% CO2-humidified atmosphere at 37 °C, a 75 µl sample was taken from the basolateral compartment and then from the apical compartment. Each sample was added to 150 µl ice-cold methanol, vortexed and put on ice immediately. […] Samples were analysed by UPLC–PDA (see “Quantification of analytes” section) for the presence of the test compound and possible metabolites.
(§3) TEER values were also measured at the end of the transport experiment, during the first washing step and compared to the TEER values measured before the transport experiment in order to assess toxicity of the test compound to the cell monolayer. […]
(§4) The apparent permeability coefficients (P app; cm/s) were calculated using the following algorithm: Papp=ΔQ/Δt/A∗C0 where P app is the apparent permeability coefficient (cm/s), ΔQ/Δt (nmol/s) is the amount of the test compound transported to the receiver chamber in a certain time period, A is the transwell membrane surface area (cm^2) and C 0 is the initial concentration of the test compound in the donor compartment (µM).
(§5) In order to assess the validity of the P app calculations for this experiment, the linearity of transport from the apical to the basolateral side was verified by taking samples from the basolateral side at t = 15, 30, 60 and 90 min, at a test concentration of 100 µM. […] The recovery of the test compound in each transport experiment was calculated with a mass balance equation, taking into account the amount of the test compound in the apical and basolateral compartment and the amount in the cells and/or filter of the Transwell® insert.

rat = experiment: In vitro PBK-based reverse dosimetry (predicted developmental toxicity); settings: BMDL05 based on Cmax
Procedure: (§6) In vitro concentration–response data obtained with the EST were translated to in vivo dose–response values by applying PBK-based reverse modelling, performed as described by Strikwold et al. ([2013]) with some modifications. […] In vivo albumin and fat levels that are used in the extrapolation rules were adjusted to values that correspond to embryos/foetuses during mid-/late gestation. […] The vitro lipid fraction and albumin levels resembling the situation in the EST were 0.04% and 4.8 mg/ml, respectively (Verwei et al. [2006]).
(§7) The BMDL05 values of the in vivo study were derived using the BMDS version 2.6.

rat liver microsomes [1] = experiment: in vitro; settings: for Vmax(app) glucuronidation (± SD): rat liver microsomes, 10 mM UDPGA, alamethicin activated
Procedure: (§8) The formation of glucuronide metabolites of the p-substituted phenols was investigated in incubations with rat liver microsomes. […] To obtain maximum glucuronidation activity, the microsomes were activated by preincubating the incubation mixture with 0.025 mg/ml alamethicin added from a 200 times concentrated stock solution in methanol, during 15 min on ice (Fisher et al. [2000]). Subsequently, the incubations were started after a 1-min preincubation at 37 °C by addition of the substrate from a 200 times concentrated stock solution in DMSO and incubated in a shaking water bath at 37 °C for 45 min. The reactions were terminated by addition of ice-cold acetonitrile (20% v/v). In the blank incubation mixtures, UDPGA was omitted. Samples were analysed by UPLC–PDA (see “Quantification of analytes” section). No reference standards of the glucuronide metabolites were commercially available. […] At first, retention times from the UPLC–PDA chromatograms of the parent compound of the blank incubation were compared with the retention times of newly appearing peaks in chromatograms of the incubation mixtures, as the glucuronide conjugates are expected to elute earlier compared with their parent compounds due do their increased hydrophilicity. […] For this purpose, a volume of 10 µl of the incubation mixture of the glucuronidation assay (that was not terminated by the addition of ice-cold acetonitrile) was added to 90 µl of 200 mM potassium phosphate (pH 6.2). Then, 4 µl of glucuronidase (200 units/ml) was added, and the mixtures were incubated for 60 min in a shaking water bath at 37 °C. The reactions were terminated by addition of ice-cold acetonitrile (20% v/v) and were put on ice. Control samples were treated under the same conditions, but without glucuronidase.
(§9) The conditions of the incubation assays were optimised to obtain linear reaction rates with respect to incubation time and protein concentration and non-limiting cofactor levels were applied. […] To obtain maximum glucuronidation activity, the microsomes were activated by preincubating the incubation mixture with 0.025 mg/ml alamethicin added from a 200 times concentrated stock solution in methanol, during 15 min on ice (Fisher et al. [2000]).
(§10) Kinetic constants for the glucuronidation of the p-substituted phenols were derived by fitting the data to the standard Michaelis–Menten equation; v=Vmax∗S/Km+[S] in which [S] represents the substrate concentration, V max the maximum velocity and K m the Michaelis–Menten constant for the formation of the glucuronide metabolites. Data analysis was accomplished using GraphPad Prism 5.0 software (GraphPad, San Diego, CA, USA). […] The in vivo K m value was assumed to be the same to the in vitro K m value.
(§11) Samples from the BeWo and Caco-2 transport experiments were centrifuged at 13,000 rpm at 5 °C for 15 min. Next 7.5 µl of the supernatant of each sample was analysed by UPLC (Waters Acquity). Samples from the glucuronidation assays were centrifuged at 15,000 rpm at 5 °C for 5 min. […] All samples, except those from transport studies with fluorescein, were analysed on a Waters BEH C18 1.7 µm column, 2.1 × 50 mm, with nanopure water (0.1% TFA) (A) and pure acetonitrile (B) applying a gradient elution. The start condition was 100:0 (A:B), changing to 90:10 from 1 to 2 min, then to 10:90 from 2 to 4 min (or from 2 to 3 min when analysing samples for p-heptyloxyphenylglucuronide), remaining at this ratio for 0.5 min and then rapidly declining to the start condition. The flow rate was 0.6 ml/min.

[2] = cited from earlier work; for Concentration in EST culture medium over time: without cells, ref Strikwold et al. [2012]
BeWo cells = experiment: In vitro placental transport study (BeWo b30 transwell)
Procedure: (§12) BeWo cells (passages 28–31) were cultured in DMEM with […] and supplemented with 10% (v/v) heat-inactivated FCS, 2 mM L-glutamine, 10,000 U/ml penicillin and 10 mg/ml streptomycin and maintained in polystyrene cell culture flasks (Corning, Amsterdam, the Netherlands) in a 5% CO2-humidified atmosphere at 37 °C. Cells were harvested after exposure to a trypsin–EDTA solution. Next, the cells were seeded onto Transwell® inserts (0.4-µm pored polycarbonate membrane, 12 mm diameter), with a density of 10^5 cells/cm^2. Cell culture medium (0.5 and 1.5 ml in the apical and basolateral compartment, respectively) was changed daily.
(§13) Transport experiments were performed 6 days post-seeding. The transport buffer consisted of HBSS with 30 mg/ml bovine serum albumin (apical compartment) and 10 mg/ml bovine serum albumin (basolateral compartment) representing mid- and late gestational maternal and embryonic/foetal rat plasma albumin levels, respectively (Honda et al. [2008]; Mcmullin et al. [2008]; Yeoh and Morgan [1974]). The transport experiments were performed for the same compounds and according to the same method as described for the Caco-2 transport experiments, except that only cell layers with a TEER value >190 Ω cm^2 were used for the transport experiments. The BeWo transport studies encompassed four independently performed experiments including two replicates in each assay. Samples were analysed by UPLC–PDA (see “Quantification of analytes” section) for the presence of the test compound and possible metabolites. The apparent permeability coefficients were calculated using the same method as described for the Caco-2 transport experiments.

in vitro [3] = settings: human, Caco-2
Procedure: as §1, §2, §3, §4, §5

[4] = In vivo developmental toxicity study, rats exposed at GD11; settings: female, rat
From the text: as §7

rat liver microsomes [5] = settings: cited from earlier work
[6] = rat, ref Humphrey et al. [1980], cited from earlier work
[7] = In vitro placental transport study (BeWo b30 transwell); settings: human
Procedure: as §12, §13

Balb/c 3T3 clone A31 = settings: BSA levels reflecting in vitro and in vivo situation
Procedure: as §6

in vitro [8] = settings: rat, pH 7.4
Procedure: as §8, §9, §10, §11

ES-D3 cells = settings: ref Strikwold et al. [2012]; cited from earlier work
[9] = rat at GD20; ref Varma and Ramakrishnan [1985]; cited from earlier work
in vivo = settings: female, rat GD11, allometrically scaled from GD20 value of Varma and Ramakrishnan [1985], read-out: CLPL, transplacental maternal-foetal clearance rate (converted)
albumin = settings: cited from earlier work
whole embryo culture = settings: cited from earlier work
[10] = P app ratio to antipyrine multiplied by antipyrine clearance 0.18 l/h, GD11

SMILES: CC(=O)c1ccc(O)cc1 [p-Methylketophenol, p-methylketophenol]
ka, predicted oral absorption coefficient (Caco-2 cells; Caco-2): 8.18 h⁻¹ | Potency ratio (phenol / p-substituted phenol), in vitro PBK approach (rat): 0.5 fold | Catalytic efficiency (Vmax/Km) (rat liver microsomes [1]): 1.16 ml/min/mg protein | Km (rat liver microsomes [1]): 138 ± 17 µM | Scaled Vmax(app) (rat liver microsomes [1]): 365 µmol/h/g liver | Scaled catalytic efficiency (rat liver microsomes [1]): 2.65 l/h/g liver | Vmax(app) glucuronidation (± SD) (rat liver microsomes [1]): 160 ± 4.4 nmol/min/mg microsomal protein | Concentration in EST culture medium over time [2]: stable | CLPL, predicted rat transplacental clearance (BeWo cells): 0.12 L/h

SMILES: Oc1ccccc1 [Phenol]
Papp A→B at 60 min, 100 µM (in vitro [3]): 48.4 ± 8.6 ×10⁻⁶ cm/s | Scaled catalytic efficiency (rat liver microsomes [1]; scaled to rat liver): 0.44 l/h/g liver | Scaled Vmax(app) (rat liver microsomes [1]; scaled with microsomal protein yield 38 mg/g rat liver): 205 µmol/h/g liver | NOAEL [4]: 333 mg/kg | Loss in the EST ([2]; 10-day EST, ref Strikwold et al. [2013]): 39% | Concentration in EST culture medium over time [2]: decreased in time | Km (rat liver microsomes [5]; read-out: Km(app) glucuronidation (± SD), ref Strikwold et al. [2013]): 465 ± 66 µM | Vmax(app) glucuronidation (± SD) (rat liver microsomes [5]; ref Strikwold et al. [2013]): 90 ± 4 nmol/min/mg microsomal protein | ka, uptake rate from in situ intestinal perfusion [6]: 7.62^b /h | ka, uptake rate from in situ intestinal perfusion ([6]; listed as phenol): 7.62 h⁻¹ | P app fold higher than antipyrine (BeWo cells; BeWo): 1.03 fold | CLPL, predicted rat transplacental clearance (BeWo cells; [10]): 0.19 L/h | Papp A→B at 60 min, 100 µM [7]: 41.6 ± 3.4 ×10⁻⁶ cm/s | Effect of bovine serum albumin level on in vitro cytotoxicity (Balb/c 3T3 clone A31): not affected

SMILES: Oc1ccc(F)cc1 [p-Fluorophenol, p-fluorophenol]
Papp A→B at 60 min, 100 µM (in vitro [3]): 47.7 ± 13.8 ×10⁻⁶ cm/s | ka, predicted oral absorption coefficient (Caco-2 cells; rat, Caco-2, 100 µM): 7.52 h⁻¹ | Potency ratio (phenol / p-substituted phenol), in vitro PBK approach (rat): 0.7 fold | Km at 10 min (in vitro [8]): 314 ± 16 µM | Catalytic efficiency (Vmax/Km) (rat liver microsomes [1]; Sprague-Dawley, rat, pH 7.4): 0.32 ml/min/mg protein | Scaled catalytic efficiency (rat liver microsomes [1]; Sprague-Dawley, rat, pH 7.4): 0.74 l/h/g liver | Vmax(app) glucuronidation (± SD) (rat liver microsomes [1]): 101 ± 1.6 nmol/min/mg microsomal protein | Scaled Vmax(app) (rat liver microsomes [1]; rat, pH 7.4): 231 µmol/h/g liver | Concentration in EST culture medium over time [2]: decreased in time | CLPL, predicted rat transplacental clearance (BeWo cells; [10]): 0.15 L/h | Papp A→B at 60 min, 100 µM [7]: 34.2 ± 3.3 ×10⁻⁶ cm/s | Potency ratio / difference in BMC50 (phenol / p-substituted phenol) in the EST (ES-D3 cells): 1.9 fold

clearance (in vivo): 3 mL/min
SMILES: Cc1cc(=O)n(-c2ccccc2)n1C [Antipyrine, antipyrine]
Transplacental clearance value [9]: 7.47 mL/min/kg

P app / transport fold lower than antipyrine (BeWo cells; BeWo): 11 fold
SMILES: O=C1OC2(c3ccc(O)cc3Oc3cc(O)ccc32)c2ccccc21 [fluorescein, reference compound]

SMILES: CCCCCCCOc1ccc(O)cc1 [p-Heptyloxyphenol, p-heptyloxyphenol]
ka, predicted oral absorption coefficient (Caco-2 cells; Caco-2): 6.34 h⁻¹ | Fraction bound to albumin (albumin): 0.99 | Embryotoxic potency when hepatocytes were added (whole embryo culture): greatly reduced | Km (rat liver microsomes [1]): 2.1 ± 0.6 µM | Scaled Vmax(app) (rat liver microsomes [1]): 137 µmol/h/g liver | Vmax(app) glucuronidation (± SD) (rat liver microsomes [1]): 60 ± 4.5 nmol/min/mg microsomal protein | Concentration in EST culture medium over time [2]: stable | CLPL, predicted rat transplacental clearance (BeWo cells): 0.026 L/h
